Consider two compounds from patent publication US6340692B1, “Injectable anesthetic” (priority 1999, dated 2002).

One experiment concerns male chinchilla rabbits. Nature of the experiment: Epidural anesthesia in rabbits. The class given is in vivo. The conditions noted are these: for effective duration of epidural anesthesia: chinoxicaine 2.0% solution, Lidocaine as comparison. On the procedure: A study of epidural anesthesia was conducted on male chinchilla rabbits. The epidural puncture was made in the area of the third and fourth lumbar vertebrae by means of a Tuohi-Peridur needle. A 2.0% solution of chinoxicaine was injected into the epidural area in a volume determined in accordance with the following formula: [formula]

A further experiment relates to male guinea pigs. The experiment can be described thus: Infiltration anesthesia, Beulbring-Wade method. The class given is in vivo. On the procedure:
The pharmacological activity of chinoxicaine has been evaluated using the characteristics of: i) strength of anesthesia, ii) latent period, and iii) duration of anesthesia. A study of infiltration anesthesia was conducted according to the Beulbring-Wade method on male guinea pigs. The median effective concentration (EC50) was 0.1%. Latent period was about 1.5 minutes. The duration of deep anesthesia was: i) 25 minutes for the 0.1% solution, ii) 140.5 minutes for a 0.25% solution, iii) 310.8 minutes for a 0.5% solution, and iv) 313.8 minutes for a 1.0% solution. On the basis of specific pharmacological activity data, described in greater detail below, chinoxicaine is preferably provided as either a 0.25% or 0.5% solution in 250 mL bottles for use in infiltration anesthesia, and as a 1.0% or 2.0% solution in 5 mL ampoules for conduction and epidural anesthesia. In alternative embodiments, the anesthesia solution includes a 0.9% solution of sodium chloride.

The subject of a further experiment is sciatic nerve. Nature of the experiment: Sciatic nerve conduction anesthesia, Camaugis-Tekman method. The class given is in vivo, rats. To be noted: for duration of the anesthesia: 0.2 mL. The method, then: A study of sciatic nerve conduction anesthesia in rats was conducted in accordance with the Camaugis-Tekman method. Prior to injection of the anesthesia, the rat motor activity was evaluated by applying a compression to the animal's feet. Then, a 0.2 mL volume of chinoxicaine solution was injected into the sciatic nerve area of the pronated lower extremity. With the application of a subsequent compression to the its feet, the animal's reaction was evaluated by observing if the animal pulled apart its toes in a ‘fan-shaped’ manner when suspended by its tail. It was determined that both 1.0% and 2.0% concentrations of chinoxicaine solutions produced fast, deep, and prolonged anesthesia. The anesthesia reached fill extent within 2.0±0.3 minutes, with either concentration.

In a further experiment the test system is white non-breeding rats. The experiment can be described thus: Conduction anesthesia, injection under the tail skin. It counts as in vivo. The conditions noted are these: 1.0 mL under the tail skin. The method, then:
A study of conduction anesthesia was carried out on white non-breeding rats weighing 180 to 220 grams. The anesthetic solution was injected under the tail skin on four sides in a 1.0 mL volume at concentrations ranging from 0.1% to 1.0%. Duration of the anesthetic solution was 120.3±7.1 minutes for the 0.1% concentration, 300.5±15.5 minutes for a 0.25% concentration, 306.0±16.2 minutes for a 0.5% concentration, and 320.0±13.1 minutes for the 1.0% concentration.

A short description of experiment [1]: Conduction anesthesia, some models (general statements). The class given is in vivo.
Where [2] appears, read: infiltration anesthesia, male guinea pigs.

A value given as a limit tells only on which side of the number the result lay.

On to `CCN(CC)CC(=O)Nc1c(C)cccc1C` [Lidocaine, reference compound], for which, in the experiment on male chinchilla rabbits (epidural), the “effective duration of epidural anesthesia” value is given as “about 100 minutes”.
As to `CCCn1c(=O)c(C(=O)NCCN(CC)CC)c(O)c2ccccc21.Cl` [chinoxicaine, hydrochloride diethylaminoethylamide 1-propyl-2 oxy-4-hydroxyquinolin-3-carbonic acid], the “duration of deep anesthesia” value in the experiment with male guinea pigs (0.1% solution) worked out at 25 min; in the experiment on male guinea pigs (0.25% solution), 140.5 min; with male guinea pigs (0.5% solution), 310.8 min; in the experiment on male guinea pigs (1.0% solution), 313.8 min. Besides, the “effectiveness relative to Lidocaine or Azacaine” value in the experiment on male guinea pigs (0.5% solution, long infiltration applications) was not above 2.5 times. Moreover, the “increase in activity as compared to Lidocaine” value in the experiment on male guinea pigs (infiltration anesthesia) and in the experiment with male chinchilla rabbits (epidural anesthesia) was “two-fold increase” throughout. In addition, the “increase in activity over Trimecaine” value (in the experiment with male guinea pigs (infiltration anesthesia); in experiment [1] (conduction anesthesia)) was “comparable increase” each time. Moreover, in the experiment on male guinea pigs (setting [2]), the Latent period entry was “about 1.5 minutes”. Besides, the “median effective concentration (EC50)” value in the experiment with male guinea pigs (setting [2]) was found to be 0.1%. The “duration of the anesthesia” value was 138.0 ± 8.9 min with sciatic nerve (1.0% concentration) and 205.0 ± 12.6 min with sciatic nerve (2.0% concentration). Also, the “time until anesthesia reached full extent” value with sciatic nerve (either 1.0% or 2.0% concentration, 0.2 mL into sciatic nerve area) was not above 2.0 ± 0.3 min. Moreover, the “time from injection to deep and prolonged anesthesia” value in the experiment on male chinchilla rabbits (2.0% solution, epidural) was not above 5.0 min. Also, the “effective duration of epidural anesthesia” value in the experiment with male chinchilla rabbits (epidural) is “at least 200 minutes”. Moreover, the “duration of long and deep epidural and peridermal anesthesia” value in the experiment with male chinchilla rabbits (rabbits) was “about 270 minutes”. The “Duration of conduction anesthesia” value is 120.3 ± 7.1 min in the experiment on white non-breeding rats (0.1% concentration), 300.5 ± 15.5 min with white non-breeding rats (0.25% concentration), 306.0 ± 16.2 min in the experiment on white non-breeding rats (0.5% concentration) and 320.0 ± 13.1 min in the experiment with white non-breeding rats (1.0% concentration). For the same compound, the “effective duration relative to Trimecaine or Lidocaine” value in experiment [1] (0.5% solution, conduction applications) is recorded as “as much as twice”.
